According to PubChem BioAssay AID2060888 (Molecular Pharmacology Branch, DTP, NCI, 2025):

Test system: 695427-040-R-J1-PDC complex spheroid viability
Test: Anticancer human tumor 695427-040-R-J1-PDC patient-derived colon adenocarcinoma cell line growth inhibition [RAS]
Details: for viability, T/C: stronger effect = lower value
Summary of the method: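 Agents were tested in combination matrices in half-log decrements from a top concentration at or near clinical Cmax (10 microM if undetermined). Targets were multi-cell spheroids of tumour lines plus HUVEC and MSC stromal cells.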
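Also: viability read after seven days of drug exposure.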
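For viability, T/C in this document: 100% = DMSO vehicle control viability.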

`CCN1CCN(Cc2ccc(Nc3ncc(F)c(-c4cc(F)c5nc(C)n(C(C)C)c5c4)n3)nc2)CC1` + C#Cc1c(F)ccc2cc(O)cc(-c3ncc4c(N5CC6CCC(C5)N6)nc(OCC56CCCN5CC(F)C6)nc4c3F)c12 was tested, and the IC50 (curve of first compound, second compound 0.0316 µM) was greater than 1 µM, the IC50 (curve of first compound, second compound 0.1 µM) was greater than 1 µM and the IC50 (curve of first compound, second compound 0.316 µM) was greater than 1 µM. It also gave an IC50 (curve of first compound, second compound 1 µM) greater than 1 µM, an IC50 (curve of first compound, second compound 3.16 µM) greater than 1 µM and an IC50 (curve of first compound, second compound 10 µM) of less than 0.00316 µM. The viability, T/C (second compound 0.0316 µM, first compound 0.00316 µM) was 94.9%, the viability, T/C (second compound 0.0316 µM, first compound 0.01 µM) was 102% and the viability, T/C (second compound 0.0316 µM, first compound 0.0316 µM) was 85.8%. For the same compound, the viability, T/C (second compound 0.0316 µM, first compound 0.1 µM) was 88.4%, the viability, T/C (second compound 0.0316 µM, first compound 0.316 µM) was 100% and the viability, T/C (second compound 0.0316 µM, first compound 1 µM) was 106%. It also gave a viability, T/C (second compound 0.1 µM, first compound 0.00316 µM) of 93%, a viability, T/C (second compound 0.1 µM, first compound 0.01 µM) of 92.9% and a viability, T/C (second compound 0.1 µM, first compound 0.0316 µM) of 90.5%. The viability, T/C (second compound 0.1 µM, first compound 0.1 µM) was 79.4%, the viability, T/C (second compound 0.1 µM, first compound 0.316 µM) was 91.6% and the viability, T/C (second compound 0.1 µM, first compound 1 µM) was 96.3%. For the same compound, the viability, T/C (second compound 0.316 µM, first compound 0.00316 µM) was 83.1%, the viability, T/C (second compound 0.316 µM, first compound 0.01 µM) was 85.3% and the viability, T/C (second compound 0.316 µM, first compound 0.0316 µM) was 78.1%. It also gave a viability, T/C (second compound 0.316 µM, first compound 0.1 µM) of 78.6%, a viability, T/C (second compound 0.316 µM, first compound 0.316 µM) of 77.7% and a viability, T/C (second compound 0.316 µM, first compound 1 µM) of 85.6%. For the same compound, the viability, T/C (second compound 1 µM, first compound 0.00316 µM) was 75.2%, the viability, T/C (second compound 1 µM, first compound 0.01 µM) was 68.1% and the viability, T/C (second compound 1 µM, first compound 0.0316 µM) was 61%. For the same compound, the viability, T/C (second compound 1 µM, first compound 0.1 µM) was 60.5%, the viability, T/C (second compound 1 µM, first compound 0.316 µM) was 74.1% and the viability, T/C (second compound 1 µM, first compound 1 µM) was 71.3%. For the same compound, the viability, T/C (second compound 3.16 µM, first compound 0.00316 µM) was 53.3%, the viability, T/C (second compound 3.16 µM, first compound 0.01 µM) was 52.9% and the viability, T/C (second compound 3.16 µM, first compound 0.0316 µM) was 51.2%. For the same compound, the viability, T/C (second compound 3.16 µM, first compound 0.1 µM) was 48.2%, the viability, T/C (second compound 3.16 µM, first compound 0.316 µM) was 50.6% and the viability, T/C (second compound 3.16 µM, first compound 1 µM) was 62%. For the same compound, the viability, T/C (second compound 10 µM, first compound 0.00316 µM) was 41.1%, the viability, T/C (second compound 10 µM, first compound 0.01 µM) was 45.2% and the viability, T/C (second compound 10 µM, first compound 0.0316 µM) was 36.4%. It also gave a viability, T/C (second compound 10 µM, first compound 0.1 µM) of 33.1%, a viability, T/C (second compound 10 µM, first compound 0.316 µM) of 30.8% and a viability, T/C (second compound 10 µM, first compound 1 µM) of 32.6%.
`CCc1c2c(nc3ccc(O)cc13)-c1cc3c(c(=O)n1C2)COC(=O)[C@]3(O)CC` was tested, and the viability, T/C (compound 0.000949 µM) was 91.9% [middle of 4 runs], the viability, T/C (compound 0.003 µM) was 96.8% [middle of 4 runs] and the viability, T/C (compound 0.00949 µM) was 86.8% [middle of 4 runs]. The viability, T/C (compound 0.03 µM) was 73.4% [middle of 4 runs], the viability, T/C (compound 0.0949 µM) was 52.8% [middle of 4 runs] and the viability, T/C (compound 0.3 µM) was 34.5% [middle of 4 runs]. For the same compound, the IC50 (curve of compound) was 114 nM [middle of 4 runs].
